System: 186277-243-T-J2-PDC multi-cell spheroid viability
Experiment: Anticancer human tumor 186277-243-T-J2-PDC patient-derived colon adenocarcinoma cell line growth inhibition [PI3K]
Conditions: for IC50: curve of first compound; for viability, T/C: stronger effect = lower value
How it was run: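 Tumor cells were combined with HUVEC and MSCs into spheroids, then dosed with PI3K-inhibitor combinations over half-log ranges capped near clinical Cmax or 10 microM.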
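Also: spheroids exposed to compounds for seven days before viability reading.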
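For viability, T/C in this document: 100% = DMSO vehicle control viability.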

What does the source list for `CC(C)NCC(C(=O)N1CCN(c2ncnc3c2C(C)CC3O)CC1)c1ccc(Cl)cc1` (configuration not stated) + CC(Nc1ncnc2nc[nH]c12)c1cc2cccc(Cl)c2c(=O)n1-c1ccccc1?
IC50 (second compound 0.0316 µM): 2280 nM; IC50 (second compound 0.1 µM): 1060 nM; IC50 (second compound 0.316 µM): 1110 nM; IC50 (second compound 1 µM): 815 nM; IC50 (second compound 3.16 µM): 539 nM; IC50 (second compound 10 µM): 466 nM; viability, T/C (second compound 0.0316 µM, first compound 0.0316 µM): 90.7%; viability, T/C (second compound 0.0316 µM, first compound 0.1 µM): 78.6%; viability, T/C (second compound 0.0316 µM, first compound 0.316 µM): 80.1%; viability, T/C (second compound 0.0316 µM, first compound 1 µM): 60.4%; viability, T/C (second compound 0.0316 µM, first compound 3.16 µM): 45.4%; viability, T/C (second compound 0.0316 µM, first compound 10 µM): 31.2%; viability, T/C (second compound 0.1 µM, first compound 0.0316 µM): 82.5%; viability, T/C (second compound 0.1 µM, first compound 0.1 µM): 94%; viability, T/C (second compound 0.1 µM, first compound 0.316 µM): 70.5%; viability, T/C (second compound 0.1 µM, first compound 1 µM): 50%; viability, T/C (second compound 0.1 µM, first compound 3.16 µM): 40.1%; viability, T/C (second compound 0.1 µM, first compound 10 µM): 28.2%; viability, T/C (second compound 0.316 µM, first compound 0.0316 µM): 85.6%; viability, T/C (second compound 0.316 µM, first compound 0.1 µM): 92.2%; viability, T/C (second compound 0.316 µM, first compound 0.316 µM): 68.8%; viability, T/C (second compound 0.316 µM, first compound 1 µM): 48.9%; viability, T/C (second compound 0.316 µM, first compound 3.16 µM): 42.5%; viability, T/C (second compound 0.316 µM, first compound 10 µM): 26.3%; viability, T/C (second compound 1 µM, first compound 0.0316 µM): 96.7%; viability, T/C (second compound 1 µM, first compound 0.1 µM): 77.5%; viability, T/C (second compound 1 µM, first compound 0.316 µM): 63.8%; viability, T/C (second compound 1 µM, first compound 1 µM): 49.6%; viability, T/C (second compound 1 µM, first compound 3.16 µM): 30%; viability, T/C (second compound 1 µM, first compound 10 µM): 23%; viability, T/C (second compound 3.16 µM, first compound 0.0316 µM): 96.5%; viability, T/C (second compound 3.16 µM, first compound 0.1 µM): 92.8%; viability, T/C (second compound 3.16 µM, first compound 0.316 µM): 58.7%; viability, T/C (second compound 3.16 µM, first compound 1 µM): 36.8%; viability, T/C (second compound 3.16 µM, first compound 3.16 µM): 30.9%; viability, T/C (second compound 3.16 µM, first compound 10 µM): 17.6%; viability, T/C (second compound 10 µM, first compound 0.0316 µM): 77.3%; viability, T/C (second compound 10 µM, first compound 0.1 µM): 78.8%; viability, T/C (second compound 10 µM, first compound 0.316 µM): 54.2%; viability, T/C (second compound 10 µM, first compound 1 µM): 36.3%; viability, T/C (second compound 10 µM, first compound 3.16 µM): 21.4%; viability, T/C (second compound 10 µM, first compound 10 µM): 14.4%

From PubChem BioAssay AID1963983 (Molecular Pharmacology Branch, DTP, NCI, 2024)
